The source of these data is PMC10889360, “Therapeutic targeting Tudor domains in leukemia via CRISPR-Scan Assisted Drug Discovery” (Science Advances, 2024).

The subject of data set [1] is U251 (U-251). Briefly: cells. Conditions: for viability at 10 µM: Homo sapiens, read-out: % viability; for % viability: 10 µM. The arrangement: species or system MV4-11; U251. Here is the method: (§1) Compound information and source are listed in data S9. For Cpd_DC60, the initial small scale was obtained from the NCI Developmental Therapeutics Program (NCI/DTP) Open Chemicals Repository. Additional Cpd_DC60 was then custom synthesized by Ambinter (Orléans, France). MV4-11 cells were seeded at 20,000 cells per well, and U251 cells were seeded at 10,000 cells per well. Cells were cultured in 96-well plates at 100 μl per well and replated with fresh medium and compound every 3 days for up to 9 days. At each time point, 15 μl of the CellTiter-Glo 2.0 assay reagent (G9242, Promega) and 20 μl of resuspended cells were mixed in white flat-bottom 96-well plates (353296, Corning), and subsequently, the resultant luminescence was measured using an Infinite M1000 Pro plate reader (Tecan Trading AG, Switzerland). The relative CellTiter Glo signal was normalized to the control condition (DMSO) at each reading time point. Next, we examined the response of SGF29-dependent MV4-11 leukemia cells and the SGF29-independent U251 glioblastoma cells (see Fig. 1H) to these 190 candidate compounds (plus 15 reference compounds) using a CellTiter Glo screen. […] Compared to the pan-cancer inhibitors I-BET151 [inhibits the bromodomain of Bromodomain and Extra-Terminal motif (BET)] ([36]) and JQ1 (blocks BRD4 bromodomain) ([10]), we observed several known leukemia-targeting compounds (EPZ-5676, OICR-9429, A-485, and A-366) ([37]–[40]) within the 19 MV4-11 selective inhibitors (detailed in fig. S7A). On the basis of the selective killing against MV4-11 (Δ Score, i.e., differential CellTiter Glo % between MV4-11 and U251 on day 9), we then chose the top six ranked candidate compounds (Cpd_DC60, 201, 11, 157, 182, and 21) for further investigation (fig. S7B). […] Identification of SGF29 lead inhibitor by CRISPR-SADD workflow. (A) Schematic outline of the Sgf29 high-density CRISPR tiling scan in MLL-AF9-Cas9^+ cells. (B) Two-dimensional annotation of Sgf29 CRISPR-Scan. The blue line indicates the smoothened model of the CRISPR-Scan score derived from 147 sgRNAs (dots) targeting the coding exons of Sgf29. The median NCS scores of the positive control (red dotted line; defined as −1.0) and negative control (green dotted line; defined as 0.0) sgRNAs are highlighted. The blue dashed box indicates the SGF29-TTD domain. (C) Three-dimensional annotation Sgf29 CRISPR-Scan score relative to an x-ray crystal structural model of human SGF29-TTD (PDB ID: 3ME9). The CRISPR hypersensitive (red) aromatic cage of SGF29 Tudor_2 domain is highlighted. (D) Docking box (cube) defined by overlapping the PrankWeb predicted ligandable protein surface (surface contour marked by the dotted pink-line) with the CRISPR hypersensitive region of SGF29-TTD (red areas). (E) Heatmap showing the relative CellTiter Glo signal [% to dimethyl sulfoxide (DMSO) control] of MV4-11 and U251 cells incubated with 205 selected compounds (10 μM) for 3, 6, and 9 days. The effective killing was defined as less than 10% relative CellTiter Glo signal on day 9. Four clusters of compounds are identified, including the U251 selective (7 cpds), noneffective (157 cpds), general toxic (22 cpds), and MV4-11 selective (19 cpds) groups. (F and G) Western blot of (F) MOLM13 cells and (G) MV4-11 cells incubated with Cpd_DC60 (20 μM) for 48 hours. (H) Effect of Cpd_DC60 on the SGF29-TTD/H3K4me3 AlphaScreen signal. (I) Left: Docking simulation model of SGF29-TTD (colored by NCS) interacts with Cpd_DC60 (yellow). Right: Overlap of SGF29-TTD/H3K4me3 (cyan) cocrystal structure (PDB ID: 3ME9) with the predicted Cpd_DC60 (yellow) binding post on SGF29-TTD. The “aromatic cage” that consists of Y238, Y245, and F264 is indicated. a.a., amino acid. IC50, median inhibitory concentration.

Data set [2] relates to MV4-11. The data set is described as follows: cells. The arrangement: species or system MV4-11; U251. Conditions: for viability at 10 µM: Homo sapiens, read-out: % viability; for % viability: 10 µM. The method, then: as §1
For data set [3], the target named is T1, recombinant His6-tagged SGF29 tandem Tudor domain (SGF29-TTD), residues Met114 to Lys293 (human, UniProt Q96ES7 114-293).
T1 construct: SAGA-associated factor 29 (SGF29), human, tandem Tudor domain, residues Met114 to Lys293, UniProt Q96ES7; 22.9 kDa with the tag; Codon-optimised cDNA with synonymous changes only; No tag cleavage is described; the chain is detected by the nickel chelate AlphaScreen beads; The forward primer carries the end of a TEV site (ENLYFQS) from the vector before Met114; also called SGF29_Tudor 2; …
T1 sequence (looked up): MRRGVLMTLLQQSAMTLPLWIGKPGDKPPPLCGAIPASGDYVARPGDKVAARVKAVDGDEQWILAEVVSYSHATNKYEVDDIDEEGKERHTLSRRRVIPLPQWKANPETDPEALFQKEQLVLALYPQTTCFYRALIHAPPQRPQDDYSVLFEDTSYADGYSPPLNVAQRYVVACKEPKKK
The data set is described as follows: AlphaScreen or HTRF; AlphaScreen Histidine (Nickel Chelate) Detection Kit; 75 nM SGF29-TTD, 150 nM H3(1-18)K4me3-bio, 0.8% DMSO, acceptor/donor beads 20 ug/ml; 50 mM Hepes, 100 mM NaCl, 5 mM TCEP, pH 7.4; 25 C, 3 hours; signal blocked by the small molecule Cpd_DC60. Conditions: both partners purified. On the technique in general: Bead proximity is the source of the signal in Alpha formats.

Where a name gives a salt, the structure may show the parent alone. Read-outs that look alike come from different tables or passages of the source. No end group written: not given here. Me3 = trimethyl (trimethyl-lysine)

As usually defined, the viability is a read-out of living cells in per cent, often relative to untreated cells. As for `Cc1ccc2nc(-c3ccc(N4C(=O)C5C6c7ccccc7C(c7ccccc76)C5C4=O)cc3)sc2c1` (stereo not shown) [compound 23, ZINC000008935041], the viability at 10 µM in data set [1] (U-251, 72 h) worked out at 87.4%; in data set [1] (U-251, 144 h) it was 48.7%; in data set [1] (U-251, 216 h), 11%; in data set [2] (MV4-11, 72 h) it was 41.6%; in data set [2] (MV4-11, 144 h), 14.8%; in data set [2] (MV4-11, 216 h), 4.43%.
On to `CC(C)(C)NCCCNC(=O)c1cccc(Br)c1` [compound 31, UNC2170 trifluoroacetate], for which the viability at 10 µM in data set [1] (U-251, 72 h) was 111%; in data set [1] (U-251, 144 h) it was 110%; in data set [1] (U-251, 216 h), 106%; in data set [2] (MV4-11, 72 h), 120%; in data set [2] (MV4-11, 144 h) it was 93.1%; in data set [2] (MV4-11, 216 h), 125%.
On to `CCC[C@H](NC(=O)[C@@H]1[C@H]2CCC[C@H]2CN1C(=O)[C@@H](NC(=O)[C@@H](NC(=O)c1cnccn1)C1CCCCC1)C(C)(C)C)C(=O)C(=O)NC1CC1` [compound 76, Telaprevir (VX-950)], for which the “% viability” value amounted to 49.36% in data set [1] (day 3, 72 h); 17.7% in data set [1] (day 6, 144 h); 2.593% in data set [1] (day 9, 216 h); 12.16% in data set [2] (day 3, 72 h); 1.882% in data set [2] (day 6, 144 h); 0.2706% in data set [2] (day 9, 216 h).
Consider `COc1cc2c(cc1-c1c(C)noc1C)ncc1[nH]c(=O)n([C@H](C)c3ccccn3)c12` [compound 78, I-BET151], for which the viability at 10 µM in data set [1] (U-251, 72 h) is 14.5%; in data set [1] (U-251, 144 h), 0.804%; in data set [1] (U-251, 216 h), 0.227%; in data set [2] (MV4-11, 72 h) it was 0.356%; in data set [2] (MV4-11, 144 h), 0.218%; in data set [2] (MV4-11, 216 h), 0.24%.
`O=C(Cc1ccccc1)Nc1ccc2oc(-c3ccc4ccccc4c3)nc2c1` [compound 172, ZINC000001204199]: the viability at 10 µM in data set [1] (U-251, 72 h) is 108%; in data set [1] (U-251, 144 h), 107%; in data set [1] (U-251, 216 h) it was 112%; in data set [2] (MV4-11, 72 h), 114%; in data set [2] (MV4-11, 144 h), 101%; in data set [2] (MV4-11, 216 h), 78.6%.
As to `Nc1c(Br)cc([N+](=O)[O-])cc1Br` [compound 240, ZINC000001641734], the viability at 10 µM in data set [1] (U-251, 72 h) worked out at 110%; in data set [1] (U-251, 144 h), 106%; in data set [1] (U-251, 216 h), 115%; in data set [2] (MV4-11, 72 h), 95.7%; in data set [2] (MV4-11, 144 h), 86.7%; in data set [2] (MV4-11, 216 h) it was 89%.

B1: H3(1-18)K4me3-bio (biotinylated H3K4me3) peptide (peptide, UniProt P68431 2-19, looked up)
peptide: ARTK(Me3)QTARKSTGGKAPRK
modifications: also: biotin, position not given here
notes: histone H3, residues 1-18, trimethylated at lysine 4; source: synthetic peptide (Thermo Fisher Scientific)
For the molecule B1, in data set [3], the binding result is given as “binds”.
